Measured values as given in patent publication US20180353505A1, “COMPATIBLE SOLUTE OR SOLUTE MIXTURE FOR USE IN THE PREVENTION OR TREATMENT OF DISEASES HAVING BARRIER DEFECTS IN EPITHELIAL TISSUES” (bitop AG, priority 2015, published 2018).
Values joined by “and” are separate entries in the source; they are usually repeats but may differ in a detail not shown here. Equal values may be shown once.

Legend:
[1] = tested on: human keratinocytes (HaCaT); assay: TEER of HaCaT monolayer after overnight incubation and air drying (FIG. 5); type: cell-based; settings: preincubation with ectoine (50/100 mM), air drying 5 min at RT, rehydration, 24 h with OVA
Protocol: (§1) A defined strength (U) of a direct current (DC) is applied between two electrodes E1 and E2 for determination of TEER, wherein the single-layered cell layer (monolayer) is arranged between the two electrodes (FIG. 1), such that the applied direct current (DC) flows through the cells. The measurement of TEER is made by an epithelial voltmeter (EVOM2). The resulting current I is measured according to the ohmic resistance R, wherein R=U/I (Benson K, Cramer S, Galla H J (2013) Impedance-based cell monitoring: Barrier properties and beyond. FluidsBarriers, 10:5.). […]
(§2) The intact epithelial monolayer was respectively controlled by a TEER measurement. If no increase were measured in the TEER over two days, the epithelial cells have formed an intact epithelial monolayer having intact epithelial barrier (selective permeability barrier).
In a further experiment, an intact epithelial monolayer of human keratinocytes (HaCaT) was also incubated in cell culture medium with PBS (control), with 50 mM ectoine and with 100 mM ectoine over night. […] After air drying at RT under sterile conditions, the cells were overlaid with medium including OVA allergen (250 μg/ml) and incubated at 37° C. in the incubator for 24 hours and subsequently the TEER value was measured.

Claudin-1 = Claudin-1 expression in HaCaT monolayer after heat stress (ELISA); type: cell-based, human
Protocol: The HaCaT cell line was cultured in a plastic cell culture vessel until a closed single-layered cell layer (HaCaT monolayer) was formed. Subsequently, the monolayer was pretreated with 50 mM or 100 mM ectoine in cell culture medium for 6 hours (h). After pretreatment, temperature treatment of the cells was made at 44° C. for 30 min. After heat stress, the monolayer was again incubated in the incubator at 37° C. for 24 hours. Subsequently, the HaCaT monolayer was harvested and, after lysis by means of cryoshock (freezing, unfreezing and scraping with spatula), the lysate was analysed for Claudin-1 by means of ELISA.

[2] = tested on: rat bronchial epithelial cells (RLE); assay: Allergy prevention assay (APA), OVA penetration, RLE monolayer; type: cell-based
Description: (§3) The cell culture vessel (6) comprises an inner (7) and an outer (5) reservoir, wherein the two compartment are partitioned by a transparent ThinCerts membrane (5) having a pore size of 0.4 μm. This pore size allows for cytokine and protein movement between the outer and inner reservoir (FIG. 6.) Eukaryotic cells may not pass through this membrane thus forming a single-layered closed cell layer which covers the whole membrane. In doing so, an arrangement is achieved by the experimental setup which reflects the apical side (outer reservoir) and basolateral side (inner reservoir within the inset) of epithelial cells. However, allergens, such as e.g. ovalbumin (OVA), may pass the membrane without problems due to their low molecule size.
(§4) If a closed epithelial cell layer is present, OVA may only pass this membrane barrier through “gaps”, tight junction or transcytosis from the apical to the basolateral side. […]
(§5) The cells of the respective cell line (see Table 3) were cultivated on a membrane (3) (FIG. 6) until formation of a closed single-layered cell layer (2) (synonymously epithelial monolayer). […] Subsequently, the OVA content was measured in the inner and outer reservoir by means of OVA-specific ELISA and the relative penetration of the epithelial monolayer with OVA in pretreated and non-treated cells was determined.

[3] = tested on: porcine renal epithelial cells (LLC-PK1); assay: TEER of LLC-PK1 monolayer after overnight incubation and BAK stress (FIG. 4); type: cell-based; settings: LLC-PK1, 50 mM ectoine over night, then BAK stress
Protocol: as §1, §2
Additionally, an intact epithelial monolayer of porcine renal epithelial cells (LLC-PK1) was also incubated in cell culture medium with PBS (control), with 50 mM ectoine and with 0.1% lecithin (positive control) over night. Subsequently, stress treatment was made with 0.001% BAK and change of the transepithelial electric resistance [Ohm] was monitored hourly (FIG. 4).

[4] = tested on: rabbit corneal epithelial cells (SIRC); assay: Allergy prevention assay (APA), OVA penetration, SIRC monolayer; type: cell-based
Description: as §3
If a closed epithelial cell layer is present, OVA may only pass this membrane barrier through “gaps”, tight junction or transcytosis from the apical to the basolateral side. (Ding L, Zhang Y, Jiang Y, Wang L, Liu B, Liu J (2014) Transport of egg white ACE-Inhibitory peptide, Gln-Ile-Gly-Leu-Phe, in human intestinal Caco-2 cell monolayers with cytoprotective effect. J Agric Food Chem (Epub ahead of print)).
The cells of the respective cell line (see Table 3) were cultivated on a membrane (3) (FIG. 6) until formation of a closed single-layered cell layer (2) (synonymously epithelial monolayer). Subsequently, the epithelial monolayer was pretreated with ectoine (10, 50, 100 mM) in cell culture medium for 6 hours. After pretreatment with ectoine, the epithelia monolayer was incubated with 250 μg/ml of the allergen OVA (FIG. 6) over night. Subsequently, the OVA content was measured in the inner and outer reservoir by means of OVA-specific ELISA and the relative penetration of the epithelial monolayer with OVA in pretreated and non-treated cells was determined.

[5] = tested on: epithelial cells of the oral mucosa (TR146); assay: Allergy prevention assay (APA), OVA penetration, TR146 monolayer; type: cell-based, human; settings: TR146, OVA + 100 mM ectoine
Description: as §3, §4, §5

[6] = tested on: human nasal mucosa epithelial cells (RPMI-2650); assay: Allergy prevention assay (APA), OVA penetration, RPMI-2650 monolayer; type: cell-based
Description: as §3, §4, §5

HaCaT (drying stress) = assay: Allergy prevention assay (APA) with drying stress, HaCaT monolayer; type: cell-based, human
Description: as §3, §4
as §5, with “determined. […]” for “determined.”

[7] = tested on: human keratinocytes (HaCaT); assay: Allergy prevention assay (APA), OVA penetration, HaCaT monolayer; type: cell-based; settings: OVA + 10 mM ectoine
Description: as §3, §4, §5

[8] = tested on: epithelial cells of the oral mucosa (TR146); assay: TEER of TR146 monolayer after overnight incubation and 0.005% SDS stress (FIG. 3); type: cell-based, human; settings: then 0.005% SDS
Protocol: as §1, §2
In order to subsequently measure the effect of ectoine on membrane stability under the influence of chemicals, an intact epithelial monolayer of epithelial cells of the oral mucosa (TR146) were incubated in cell culture medium with PBS (control), with 50 mM ectoine and with 0.1% lecithin (positive control) over night. Subsequently, stress treatment was made with 0.005% SDS and change of the transepithelial electric resistance [Ohm] was monitored hourly (FIG. 3).

[9] = tested on: epithelial cells of oral mucosa (TR146); assay: TEER of TR146 monolayer after 12 h incubation, no stress (FIG. 2); type: cell-based, human
Protocol: A defined strength (U) of a direct current (DC) is applied between two electrodes E1 and E2 for determination of TEER, wherein the single-layered cell layer (monolayer) is arranged between the two electrodes (FIG. 1), such that the applied direct current (DC) flows through the cells. The measurement of TEER is made by an epithelial voltmeter (EVOM2). The resulting current I is measured according to the ohmic resistance R, wherein R=U/I (Benson K, Cramer S, Galla H J (2013) Impedance-based cell monitoring: Barrier properties and beyond. FluidsBarriers, 10:5.).
For this purpose, in in vitro experiments, epithelial tissues were sown on special cell culture carrier having a membrane (ThinCerts, pore size 0.4 μm) and cultured to a closed, single-layered cell layer (synonymously epithelial monolayer) on the membrane (FIG. 1).
as §2
In order to measure effects of ectoine on barrier function, in particular membrane integrity, TR146 cells of an intact epithelial monolayer were incubated in cell culture medium with PBS (control), with 50 mM ectoine and with 0.1% lecithin (positive control) for 12 hours (h).

Compound: CC1=NC(C(=O)O)CCN1 (stereo not shown) [ectoine, 1,4,5,6-tetrahydro-2-methyl-4-pyrimidine carboxylic acid]
- TEER [1]: approx. 180 Ohm
- Claudin-1 expression, factor over medium and PBS without ectoine (Claudin-1; 100 mM ectoine, 24 hours): 3
- Claudin-1 expression [Claudin-1] +/− SD (Claudin-1; Ectoine 100 mM 6 h, 44° C. 30 min, 24 h at 37° C.): 0.22 ng/ml +/− 0.006
- Penetrations protection (as compared to PBS) [%] +/− SD ([2]; OVA + 50 mM ectoine): −6.3 +/−7.91^ %
- Penetrations protection (as compared to PBS) [%] +/− SD ([2]; OVA + 100 mM ectoine): −124.5 +/− 3.72%
- Effect on TEER / membrane stability [3]: stabilization of the membrane of epithelial cells LLC-PK1 is already achieved
- Penetrations protection (as compared to PBS) [%] +/− SD ([4]; OVA + 10 mM ectoine): 0 +/− 11.52%
- Penetrations protection (as compared to PBS) [%] +/− SD ([4]; OVA + 50 mM ectoine): 16.3 +/− 2.31%
- Penetrations protection (as compared to PBS) [%] +/− SD ([4]; OVA + 100 mM ectoine): up to 50%
- Penetrations protection (as compared to PBS) [%] +/− SD [5]: 13.44 +/− 7.69%
- Penetrations protection (as compared to PBS) [%] +/− SD ([6]; OVA + 10 mM ectoine): 23.5 +/− 17.1%
- Penetrations protection (as compared to PBS) [%] +/− SD ([6]; OVA + 100 mM ectoine): up to 50%
- Penetrations protection (as compared to PBS) [%] +/− SD (HaCaT (drying stress); OVA + 50 mM ectoine): 12% and 8.1 +/− 8.01%
- Penetrations protection (as compared to PBS) [%] +/− SD (HaCaT (drying stress); OVA + 100 mM ectoine): 11.6 +/− 6.25%
- Penetrations protection (as compared to PBS) [%] +/− SD [7]: −0.61 +/− 0.1%
- TEER ([8]; TR146, 50 mM ectoine over night): 215 Ohm
- TEER value ([9]; TR146, 50 mM ectoine): 215 Ohm

Compound: lecithin [reference compound]
- TEER ([8]; TR146, 0.1% lecithin over night): 225 Ohm
- TEER value ([9]; TR146, 0.1% lecithin (positive control)): 225 Ohm
